The nature of series [1]: Hygroscopicity by dynamic vapor sorption (DVS). It counts as physicochemical. To be noted: for change of solid form post DVS experiment: after DVS cycle 5-95% RH at 25° C.; for water absorbed (dynamic vapor sorption): up to 95% RH at 25° C. As for the experimental part: Hygroscopicity was studied using dynamic vapor sorption (DVS, TA Q5000 SA, TA Instruments, New Castle, DE or DVS, DVS Intrinsic, Surface Measurement Systems, London, UK). A sample (1-20 mg) was placed in an aluminum DVS pan and loaded on the sample side of the twin pan balance. The water sorption and desorption were studied as a function of relative humidity (RH) at 25° C. In 10% RH increments, the relative humidity was increased from 5% RH to 95% RH and then decreased back to 5%. […] Data analysis was performed using Universal Analysis 2000 Version 4.7A (TA Instruments, New Castle, DE) for TA DVS runs and Microsoft Excel for SMS DVS runs.

A short description of series [2]: Drying of solid form under ambient conditions (form conversion). It counts as physicochemical. An excerpt: Compound of Formula I, Form II is a metastable methanol solvated phase. It was isolated when compound of Formula I, Form I was slurried in methanol for about 60 days and identified by x-ray of the wet cake.

For `O=C(NCc1c(F)cc(F)cc1F)c1cn2c(c(O)c1=O)C(=O)N1CCCC[C@H]2C1` [Compound of Formula I, Form I, (7S)-12-hydroxy-1,11-dioxo-N-(2,4,6-trifluorobenzyl)-1,4,5,6,7,11-hexahydro-3H-2,7-methanopyrido[1,2-a][1,4]diazonine-10-carboxamide], in series [1], the “change of solid form post DVS experiment” value is on record as “not have changed form” and the “water absorbed (dynamic vapor sorption)” value was “about 0.097%”. For `O=C(NCc1c(F)cc(F)cc1F)c1cn2c(c(O)c1=O)C(=O)N1CCCC[C@H]2C1` [Compound of Formula I, Form II, (7S)-12-hydroxy-1,11-dioxo-N-(2,4,6-trifluorobenzyl)-1,4,5,6,7,11-hexahydro-3H-2,7-methanopyrido[1,2-a][1,4]diazonine-10-carboxamide], in series [2], the “form conversion upon drying” value is listed as “convert to compound of Formula I, Form III”. With `O=C(NCc1c(F)cc(F)cc1F)c1cn2c(c(O)c1=O)C(=O)N1CCCC[C@H]2C1` [Compound of Formula I, Form III, (7S)-12-hydroxy-1,11-dioxo-N-(2,4,6-trifluorobenzyl)-1,4,5,6,7,11-hexahydro-3H-2,7-methanopyrido[1,2-a][1,4]diazonine-10-carboxamide], in series [1], the “change of solid form post DVS experiment” value was “not have changed form” and the “water absorbed (dynamic vapor sorption)” value is “about 0.87%”.

Turning to `O=C(NCc1c(F)cc(F)cc1F)c1cn2c(c(O)c1=O)C(=O)N1CCCC[C@H]2C1` [Compound of Formula I, Form IV, (7S)-12-hydroxy-1,11-dioxo-N-(2,4,6-trifluorobenzyl)-1,4,5,6,7,11-hexahydro-3H-2,7-methanopyrido[1,2-a][1,4]diazonine-10-carboxamide], in series [1], the “change of solid form post DVS experiment” value is “not have changed form” and the “water absorbed (dynamic vapor sorption)” value is “about 3.5%”.

The values above are taken from patent US20260007683A1, “PHARMACEUTICAL COMPOSITIONS COMPRISING HIV INTEGRASE INHIBITORS” (Gilead Sciences, Inc., priority 2024, published 2026).
